In patent US20250059166A1, “PIPERIDINYLPYRIDINYLCARBONITRILE DERIVATIVES AS INHIBITORS OF GLUTAMINYL-PEPTIDE CYCLOTRANSFERASE AND GLUTAMINYL-PEPTIDE CYCLOTRANSFERASE LIKE PROTEIN” (Boehringer Ingelheim International GmbH, priority 2023, published 2025):
Read-outs that look alike come from different tables or passages of the source.

Key:
[1] = system: SIRPα signalling induced by Raji cells; experiment: Assay B: SIRPα signalling assay using Raji cells; format: cell-based; conditions: Homo sapiens, read-out: Inhibition of SIRPα signalling induced by Raji cells: IC50
Procedure: (§1) Two cell types are independently used: the Raji cell line (lymphoblast-like human cell line derived from B lymphocytes from a Burkitt's lymphoma patient in 1963) and A549 cells (adenocarcinoma human alveolar basal epithelial cells).
(§2) Test compounds were dissolved in 100% DMSO and serially diluted into a white 384-well microtiter cell culture plate (PerkinElmer #60076780 in case of Raji assay; PDL-coated plates Greiner #781945 in case of A549 assay). 5000 Raji cells (ATCC #CC86) or 5000 A549 cells (ATCC #CCL-185) in Assay Complete Cell Plating reagent 30 (DiscoverX 93-0563R30B) were added per well. The assay plate was incubated for 48 h at 37° C., 95% humidity and 5% CO2. 15000 reporter cells (Jurkat PathHunter SIRPαV1, DiscoverX #93-1135C19) were added to each well, and the plate was incubated for 5 h at 37° C., 95% humidity and 5% CO2. Bioassay reagent 1 of the PathHunter Bioassay detection kit (DiscoverX 93-0001) was added to each well of the plate using a multichannel pipette followed by a 15 min incubation at room temperature. Afterwards bioassay reagent 2 was added followed by 60 min incubation at room temperature (incubation in the dark).
(§3) The analysis of the data was performed using the luminescence signal generated by beta-galactosidase in the PathHunter reporter cell line. The luminescence measurement was done using a Pherastar Multi-Mode Reader. Dose-response curves & IC50 data were calculated with 4-parameter sigmoidal dose response formula.

[2] = system: SIRPα signalling induced by A549 cells; experiment: Assay B: SIRPα signalling assay using A549 cells; format: cell-based; conditions: Homo sapiens
Procedure: as §1, §2, §3

[3] = Assay C: permeability in CACO-2 cells; format: in vitro ADME; conditions: human
Procedure: Caco-2 cells (1-2×10^5 cells/1 cm^2 area) are seeded on filter inserts (Costar transwell polycarbonate or PET filters, 0.4 μm pore size) and cultured (DMEM) for 10 to 25 days. Compounds are dissolved in appropriate solvent (like DMSO, 1-20 mM stock solutions). […] The transport solution (TL) is applied to the apical or basolateral donor side for measuring A-B or B-A permeability (3 filter replicates), respectively. Samples are collected at the start and end of experiment from the donor and at various time intervals for up to 2 hours also from the receiver side for concentration measurement by HPLC-MS/MS or scintillation counting. Sampled receiver volumes are replaced with fresh receiver solution.
Efflux ratio(ER)=permeabilityB−A/permeabilityA−B

QPCTL = target: T1, QPCTL (Homo sapiens, UniProt Q9NXS2); experiment: Assay A: biochemical QPCTL activity assay (MALDI-TOF MS, CD47 peptide substrate); conditions: compounds of the invention; 0.5 nM enzyme, 10 μM CD47 peptide substrate; read-out: Inhibition of QPCTL: IC50
T1 construct: made in house
Procedure: (§4) QPCT or QPCTL dependent conversion of N-terminal glutamine to pyroglutamate of CD47 was monitored via MALDI-TOF MS. Test compounds were dissolved in 100% DMSO and serially diluted into clear 1,536-well microtiter plates. Enzymatic reactions were set up in assay buffer containing 20 mM Tris pH 7.5, 0.1 mM TCEP, 0.01% BSA, and 0.001% Tween20. […] The plates were incubated for 10 min in a humidified incubator at 24° C. Subsequently, 2.5 μL of CD47 peptide substrate surrogate (^19[…]^33) was added to each well (final concentration: 10 μM for QPCTL/20 μM for QPCT). The plates were mixed for 30 sec at 1,000 rpm and subsequently incubated for 40 min in a humidified incubator at 24° C. […] The plates were sealed with an adhesive foil, mixed for 30 s at 1,000 rpm and stored at room temperature until preparation of the MALDI target plates. […] QPCT or QPCTL activity was monitored by calculating the ratio between product and internal standard signals followed by normalization to high (100% activity) and low (0% activity) controls. Determination of compound potencies was obtained by fitting the dose-response data to a four-parameter logistical equation.

QPCT = target: T2, QPCT (Homo sapiens, UniProt Q16769); experiment: Assay A: biochemical QPCT activity assay (MALDI-TOF MS, CD47 peptide substrate); conditions: compounds of the invention; 0.5 nM enzyme, 20 μM CD47 peptide substrate; read-out: Inhibition of QPCT: IC50
T2 construct: purchased Origine (so in the source)
Procedure: as §4

[4] = compounds of the invention, Raji cells 48 h, Jurkat PathHunter SIRPαV1 reporter cells 5 h
[5] = compounds of the invention, A549 cells 48 h, Jurkat PathHunter SIRPαV1 reporter cells 5 h, read-out: Inhibition of SIRPα signalling induced by A549 cells: IC50
[6] = pH 7.2, compounds of the invention, Caco-2, permeability B-A / permeability A-B
[7] = compounds of the invention, Caco-2, apical to basolateral, pH 7.2

T1 sequence (Q9NXS2 whole entry): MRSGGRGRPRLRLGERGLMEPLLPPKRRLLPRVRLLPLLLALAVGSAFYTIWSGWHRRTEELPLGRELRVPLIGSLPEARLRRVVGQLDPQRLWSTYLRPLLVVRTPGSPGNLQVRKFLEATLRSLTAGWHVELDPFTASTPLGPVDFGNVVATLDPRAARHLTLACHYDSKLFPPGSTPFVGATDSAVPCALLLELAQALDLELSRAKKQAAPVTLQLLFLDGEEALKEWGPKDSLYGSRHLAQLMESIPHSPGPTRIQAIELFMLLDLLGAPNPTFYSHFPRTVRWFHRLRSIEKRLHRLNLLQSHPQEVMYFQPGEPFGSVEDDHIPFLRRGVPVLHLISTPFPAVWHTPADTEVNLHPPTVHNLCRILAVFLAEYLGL
T2 sequence (Q16769 29-361): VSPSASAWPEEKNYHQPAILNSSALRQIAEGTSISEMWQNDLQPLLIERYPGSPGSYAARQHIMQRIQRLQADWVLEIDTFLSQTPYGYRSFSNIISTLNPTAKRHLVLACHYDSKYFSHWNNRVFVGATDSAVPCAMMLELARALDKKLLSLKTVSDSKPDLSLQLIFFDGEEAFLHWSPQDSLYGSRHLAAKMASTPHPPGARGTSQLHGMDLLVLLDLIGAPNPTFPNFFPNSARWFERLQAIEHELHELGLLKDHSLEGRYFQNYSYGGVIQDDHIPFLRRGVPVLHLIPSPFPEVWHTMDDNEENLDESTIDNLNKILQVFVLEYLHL

Row | Compound | IC50 ([1]; prior art compounds, Raji cells 48 h, Jurkat PathHunter SIRPαV1 reporter cells 5 h) [nM] | IC50 ([2]; prior art compounds, A549 cells 48 h, Jurkat PathHunter SIRPαV1 reporter cells 5 h, read-out: Inhibition of SIRPα signalling induced by A549 cells: IC50) [nM] | Papp A→B at 2 h ([3]; Caco-2, pH 7.2) [×10⁻⁶ cm/s] | efflux ratio at 2 h ([3]; Caco-2, pH 7.2) | IC50 (QPCTL) [nM] | IC50 (QPCT) [nM] | IC50 [1, 4] [nM] | IC50 [2, 5] [nM] | efflux ratio at 2 h [3, 6] | Papp A→B at 2 h [3, 7] [×10⁻⁶ cm/s] | IC50 ([1]; Raji) [nM] | IC50 ([2]; A549, read-out: Inhibition of SIRPα signalling induced by A549 cells: IC50) [nM]
1 | Cn1cnnc1C1CCN(S(=O)(=O)c2cccc(Nc3ccc(OCc4ccccc4)nc3)c2)CC1 [Compound 23] | > 10000 | > 10000 |  |  |  |  |  |  |  |  |  | 
2 | Nc1ncc(C2CCN(c3ncccc3-c3ccc(F)nc3)CC2)s1 [Compound 1094] |  |  | 73 | 1 |  |  |  |  |  |  |  | 
3 | Nc1nnc(C2CCN(c3ncccc3-c3ccc(F)nc3)CC2)s1 [Compound 1095] |  |  | 68 | 0.5 |  |  |  |  |  |  |  | 
4 | Cn1cnnc1C1(F)CCN(c2c(C#N)cc(C(F)(F)F)nc2-c2cnc3nn(C(C)(C)C)cc3c2)CC1 [Example 1] |  |  |  |  | 1 | 1 | 9 | 17 | 6.4 | 5.3 |  | 
5 | Cn1cnnc1C1(F)CCN(c2c(C#N)cc(C(F)(F)F)nc2-c2cnc3nn(C(C)(C)C)c(F)c3c2)CC1 [Example 2] |  |  |  |  | 1 | 1 | 17 | 53 | 4.9 | 16 |  | 
6 | Cn1cnnc1C1(F)CCN(c2c(C#N)cc(C(F)(F)F)nc2-c2cnc3nn(C(C)(C)C)c(Cl)c3c2)CC1 [Example 3] |  |  |  |  | 1 | 1 | 14 | 28 | 1 | 47 |  | 
7 | Cn1cnnc1C1(F)CCN(c2c(C#N)cc(C(F)(F)F)nc2-c2cnc3nn(C(C)(C)C)c(C(F)(F)F)c3c2)CC1 [Example 4] |  |  |  |  | 9 | 5 | 31 | 46 | 0.6 | 99.5 |  | 
8 | Cn1cnnc1C1(F)CCN(c2c(C#N)cc(C(F)(F)F)nc2-c2cnc3nn(C(F)(F)F)cc3c2)CC1 [Example 5] |  |  |  |  | 2 | 4 | 41 | 67 | 8.2 | 6.1 |  | 
9 | Cn1cnnc1C1(F)CCN(c2c(C#N)cc(C(F)(F)F)nc2-c2cnc3nn(C(C)(C)C(F)(F)F)cc3c2)CC1 [Example 6] |  |  |  |  | 2 | 2 | 26 | 50 | 10.1 | 7.2 |  | 
10 | CC(C)n1nc2ncc(-c3nc(C(F)(F)F)cc(C#N)c3N3CCC(F)(c4nncn4C)CC3)cc2c1F [Example 7] |  |  |  |  | 2 | 2 | 26 | 39 | 11.9 | 5.8 |  | 
11 | Cn1cnnc1C1(F)CCN(c2c(C#N)cc(C(F)(F)F)nc2-c2cnc3nn(C(C)(C)C)nc3c2)CC1 [Example 8] |  |  |  |  | 5 | 4 | 67 | 29 | 2.6 | 31 |  | 
12 | Cn1cnnc1C1(F)CCN(c2c(C#N)cc(C(F)(F)F)nc2-c2cnc3nn(C(F)(F)F)nc3c2)CC1 [Example 9] |  |  |  |  | 56 | 100 | 869 | 365 | 1.4 | 45 |  | 
13 | Cn1cnnc1C1(F)CCN(c2c(C#N)cc(C(F)(F)F)nc2-c2cnc(F)cc2Cl)CC1 [Example 10] |  |  |  |  | 10 | 27 | 352 | 201 | 1.2 | 58 |  | 
14 | Cn1cnnc1C1(F)CCN(c2c(C#N)cc(C(F)(F)F)nc2-c2cnc3nc(C(C)(C)C)nn3c2)CC1 [Example 11] |  |  |  |  | 3 | 3 | 47 | 29 | 14.9 | 4.3 |  | 
15 | Cn1cnnc1C1(F)CCN(c2c(C#N)cc(C(F)(F)F)nc2-c2cnc3nc(C(F)(F)F)nn3c2)CC1 [Example 12] |  |  |  |  | 24 | 29 | 860 | 599 | 6.9 | 4.9 |  | 
16 | Cn1cnnc1C1CCN(c2c(C#N)cc(C(F)(F)F)nc2-c2cnc3nn(C(C)(C)C)c(C(F)(F)F)c3c2)CC1 [Example 13] |  |  |  |  | 8 | 16 | 54 | 70 | 5.7 | 3.7 |  | 
17 | Cn1cnnc1C1(F)CCN(c2c(C#N)ccnc2-c2cnc3nn(C(C)(C)C)c(Cl)c3c2)CC1 [Example 14] |  |  |  |  | 1 | < 1 | 21 | 12 | 6.9 | 12 |  | 
18 | Cn1cnnc1C1(F)CCN(c2c(C#N)ccnc2-c2cnc3nn(C(C)(C)C)c(C(F)(F)F)c3c2)CC1 [Example 15] |  |  |  |  | 4 | 3 | 69 | 66 | 1.6 | 35 |  | 
19 | Cn1cnnc1C1(F)CCN(c2c(C#N)ccnc2-c2cnc3nn(C(F)(F)F)cc3c2)CC1 [Example 16] |  |  |  |  | 1 | 1 | 37 | 9 | 7.7 | 3.1 |  | 
20 | Cn1cnnc1C1(F)CCN(c2c(C#N)ccnc2-c2cnc3nn(C(C)(C)C)nc3c2)CC1 [Example 17] |  |  |  |  | 2 | 2 | 102 | 40 | 13.9 | 7.2 |  | 
21 | Cn1cnnc1C1(F)CCN(c2c(C#N)ccnc2-c2cnc3nn(C(F)(F)F)nc3c2)CC1 [Example 18] |  |  |  |  | 33 | 52 | 942 | 292 | 2.8 | 27 |  | 
22 | Cn1cnnc1C1(F)CCN(c2c(C#N)ccnc2-c2cccnc2)CC1 [Example 19] |  |  |  |  | 18 | 62 | 2190 | 410 | 2.6 | 11 |  | 
23 | Cc1cncc(-c2nccc(C#N)c2N2CCC(F)(c3nncn3C)CC2)c1 [Example 20] |  |  |  |  | 13 | 35 | 1370 | 615 | 4.5 | 14 |  | 
24 | Cc1cc(F)ncc1-c1nccc(C#N)c1N1CCC(F)(c2nncn2C)CC1 [Example 21] |  |  |  |  | 1 | 6 | 187 | 115 | 2.4 | 18 |  | 
25 | Cn1cnnc1C1CCN(c2ncccc2-c2ccc(F)nc2)CC1 [SEN177, reference compound] |  |  | 11 |  |  |  |  |  |  |  | 1360 | 214
26 | Cn1cnnc1C1CCN(c2ncccc2-c2cccnc2)CC1 [SEN180, reference compound] |  |  | 4.2 |  |  |  |  |  |  |  |  | 
